# Patent US10495642B2, “Inhibitors of proteins specific for the secretome of a chondrocyte for use in the treatment of breast cancer metastasis” (ALBERT-LUDWIGS-UNIVERSITÄT FREIBURG, priority 2013, dated 2019)
# Key:
# [1] = test system: human pancreatic cancer, malignant melanoma, papillary thyroid cancer, breast cancer, colon cancer, and prostate cancer cells; conditions: human cancer cells with high basal TLR3 and Wnt5a; cited from earlier work
# MDA-MB-231 cells = experiment: Transwell migration of MDA-MB-231 cells towards chondrocyte conditioned media; format: cell-based, human; conditions: chondrocyte conditioned media as chemoattractant
# Protocol: Cell differentiation: Primary human monocytes, articular chondrocytes, and adipose tissue derived stromal cells were isolated from healthy donors and differentiated into osteoclasts (OC), articular chondrocytes (AC) and osteoblasts (OB) respectively. Cell lines: MDA-MB-231 (MDA), a metastatic, and MCF7A, an epithelial like breast cancer cell line, were used in this study.
# Serum free conditioned media: After differentiation, cells were washed 2 times with PBS and incubated with DMEM for 24 hours. After 24 hours, conditioned media was harvested and passed through a 0.45 μm filter.
# Migration: MDA-MB-231 cells were serum-starved for 24 hours before testing of the migration. Migration media was plated in the bottom of the well and a transwell insert (8 μm pores) was placed on top. 25.000 cells were seed on top of the filter. After 15 hours, the filters were washed and non-migrated cells were removed. Migrated cells were stained with H&E and counted under a microscope. Numbers were obtained as the average number of 5 random fields per filter.
# [2] = target: T1, recombinant human CXCL5/ENA-78 (Homo sapiens, UniProt P42830); experiment: Phage display identification of CXCL5 binding peptides; conditions: region of CXCL5 of FIGS. 7 and 8
# T1 sequence (P42830 37-114): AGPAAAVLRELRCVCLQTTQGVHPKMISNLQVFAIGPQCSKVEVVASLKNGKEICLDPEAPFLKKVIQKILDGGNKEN
# From the text: Phage display: 12 amino acid binding peptides towards CXCL5 were identified using a commercial phage display system from […].
# 4T1 cells = conditions: cited from earlier work
# [3] = test system: MCF-7 and MDA-MB-231 as well as 4T1 cancer cell lines; conditions: addition of CXCL5, cited from earlier work
compound,measurement,setting,value
"Cn1c(-c2ccccc2)c[nH]c1=S [Peptide C10, 5-phenylmethimazole]",cell growth and migration,[1],suppression of cell growth and migration
H-IGKVDSNSVSHA-NH2 [Peptide 2],migration of MDA-MB-231 cells in the presence of the chondrocyte secretome,MDA-MB-231 cells,reduces migration
same,binding to the pocket region of CXCL5,[2],bind to said region
H-Pro-Val-Trp-Ala-his-leu-Asn-Pro-Pro-Trp-Leu-Ala-NH2 [Peptide 1],migration of MDA-MB-231 cells in the presence of the chondrocyte secretome,MDA-MB-231 cells,reduces migration
same,binding to the pocket region of CXCL5,[2],bind to said region
"CXCL5: small cytokine of the CXC chemokine family, epithelial-derived neutrophil-activating peptide 78","tumor nodules in livers, lungs and intestines versus control group",4T1 cells; 4T1 mouse model,more numerous and larger
same,metastasis of 4T1 cells in mice,4T1 cells; CXCL5 0.5 mg/kg,increased the metastasis
same,migration and invasiveness,"[3]; MCF-7, MDA-MB-231 and 4T1 cancer cell lines",enhance the migration and invasiveness
same,cell proliferation,[3]; MCF-7 or MDA-MB-231 cancer cells,did not increase cell proliferation
